Columns and labels:
Format in all cases: biochemical
human PKCα = human PKCα (Homo sapiens, UniProt P17252); experiment: PKC isoforms based HTRF KinEASE-STK assay, PKCα; conditions: 50 μM ATP in substrate mix, 30 min
Source text: (§1) The purpose of this assay is to evaluate the inhibitory activity of compounds on various PKC isoforms. It has been reported that perturbations in vascular cell homeostasis caused by different PKC isoforms (PKC-α, β1/2, and PKC-δ) are linked to the development of pathologies affecting large vessel (atherosclerosis, cardiomyopathy) and small vessel (retinopathy, nephropathy, and neuropathy) complications. Geraldes, P. and King, G. L., “Activation of Protein Kinase C Isoforms and Its Impact on Diabetic Complications”, Cir.
(§2) Effects of a test compound on the kinase activity of PKCα, β2, δ, ε, ι, and ζ, are determined using a HTRF KINEASE™-STK assay kit (Cisbio) in accordance with the protocol provided by the vendor. It is a general method for measuring Serine/Threonine kinase activities using kinase substrates and a universal detection system. In the current protocol, biotinilated STK1provided in the assay kit is used as the substrate that can be phosphorylated by any PKC isoform. The HTRF KINEASE™-STK assay kit format involves the two steps (Enzymatic step and Detection step) described below. First, the kinase phosphorylates the substrate in the presence of ATP. Second, the detection reagents provided in the assay kit recognize the phosphorylated substrate.

human PKCε = biological target: T1, human PKCε (Homo sapiens, UniProt Q02156); experiment: PKC isoforms based HTRF KinEASE-STK assay, PKCε; conditions: 25 μM ATP in substrate mix, 30 min
T1 sequence (Q02156 1-737): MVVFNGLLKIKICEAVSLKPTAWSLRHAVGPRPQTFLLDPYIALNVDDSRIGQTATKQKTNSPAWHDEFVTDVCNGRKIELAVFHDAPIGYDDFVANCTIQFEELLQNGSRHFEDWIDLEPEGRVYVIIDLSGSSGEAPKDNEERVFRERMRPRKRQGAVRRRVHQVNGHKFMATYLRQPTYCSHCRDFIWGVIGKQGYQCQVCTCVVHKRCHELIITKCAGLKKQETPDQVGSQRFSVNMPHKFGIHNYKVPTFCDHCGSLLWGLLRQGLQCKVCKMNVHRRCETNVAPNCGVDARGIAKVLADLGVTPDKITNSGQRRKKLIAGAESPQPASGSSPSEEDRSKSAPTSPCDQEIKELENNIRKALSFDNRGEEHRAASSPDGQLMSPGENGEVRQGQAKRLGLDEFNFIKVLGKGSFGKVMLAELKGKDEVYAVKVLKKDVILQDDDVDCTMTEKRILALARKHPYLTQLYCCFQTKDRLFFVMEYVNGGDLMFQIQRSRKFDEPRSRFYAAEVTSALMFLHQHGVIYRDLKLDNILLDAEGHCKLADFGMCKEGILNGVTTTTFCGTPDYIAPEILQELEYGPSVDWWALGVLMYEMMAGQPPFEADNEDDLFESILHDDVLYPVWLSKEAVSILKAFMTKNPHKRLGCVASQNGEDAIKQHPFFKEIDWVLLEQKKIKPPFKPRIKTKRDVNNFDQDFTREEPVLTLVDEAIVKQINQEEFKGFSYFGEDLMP
Source text: as §1, §2

human PKCι = biological target: T2, human PKCι (Homo sapiens, UniProt P41743); experiment: PKC isoforms based HTRF KinEASE-STK assay, PKCι; conditions: 87.5 μM ATP in substrate mix, 70 min
T2 sequence (P41743 1-596): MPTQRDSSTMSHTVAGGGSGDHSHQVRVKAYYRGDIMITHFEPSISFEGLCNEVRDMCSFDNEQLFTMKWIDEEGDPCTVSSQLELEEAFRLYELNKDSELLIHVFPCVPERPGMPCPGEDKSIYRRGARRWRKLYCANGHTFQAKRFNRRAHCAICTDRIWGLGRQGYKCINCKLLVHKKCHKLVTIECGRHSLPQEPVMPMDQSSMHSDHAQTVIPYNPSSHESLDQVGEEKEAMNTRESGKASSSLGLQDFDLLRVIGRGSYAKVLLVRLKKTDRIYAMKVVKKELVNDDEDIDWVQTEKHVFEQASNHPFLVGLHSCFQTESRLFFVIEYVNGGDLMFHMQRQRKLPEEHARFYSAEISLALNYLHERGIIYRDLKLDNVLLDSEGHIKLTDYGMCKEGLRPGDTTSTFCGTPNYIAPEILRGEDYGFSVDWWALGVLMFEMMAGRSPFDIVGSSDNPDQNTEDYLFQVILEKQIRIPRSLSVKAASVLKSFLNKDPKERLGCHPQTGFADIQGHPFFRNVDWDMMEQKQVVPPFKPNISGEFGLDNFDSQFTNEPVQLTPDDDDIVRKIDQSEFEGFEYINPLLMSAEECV
Source text: as §1, §2

In the case of `C[C@@H]1CN(C(=O)c2cc(-c3c(F)cc(O)cc3F)cc3cnsc23)C[C@H](C)N1.Cl` [Example 2, 4-(7-{[(3R,5 S)-3,5-DIMETHYLPIPERAZIN-1-YL]CARBONYL}-1,2-BENZOTHIAZOL-5-YL)-3,5-DIFLUOROPHENOL HYDROCHLORIDE], the IC50 (human PKCα) is reported as ~16.6 nM, the IC50 (human PKCε) is reported as ~21.9 nM and the IC50 (human PKCι) is reported as > 20000 nM.

— patent US20170246166A1, “1,2-BENZOTHIAZOLE COMPOUNDS FOR THE TREATMENT OF KIDNEY DISORDERS” (priority 2014, published 2017)
